Experimental data reported in US20110081316A1, “PYRAZOLE INHIBITORS OF PHOSPHATIDYLINOSITOL 3-KINASE” (VERTEX PHARMACEUTICALS INCORPORATED, priority 2009, published 2011).

Target: PI3K-gamma (Homo sapiens, UniProt P48736)
Assay: PI3K Inhibition Assay (33P-ATP, PI(4,5)P2 substrate, filter plate scintillation counting)
Format: biochemical
Conditions: 2 nM enzyme, 3 μM ATP, 30 μM PI(4,5)P2, 30 min at 25° C.; competitive tight binding Ki fit
Experimental: Using a Biomek FX from Beckman Coulter, 1.5 μL of each of ten 2.5-fold serial dilutions of a compound of the invention in 100% DMSO was added to an individual well (hereafter, “test well”) in a 96 well polystyrene plate [Corning, Costar Item No. 3697]. One test well also contained 1.5 μL of DMSO with no compound. […] Using a Titertek Multidrop, 50 μL of Reaction Mix [100 mM HEPES pH 7.5, 50 mM NaCl, 10 mM DTT, 0.2 mg/mL BSA, 60 μM phosphatidylinositol(4,5)bisphosphate diC16 (PI(4,5)P2; Avanti Polar Lipids, Cat. No. 840046P) and PI3K isoform of interest (see Table 3 for isoform concentrations)] was added to each well. To initiate the reaction, 50 μL of ATP Mix [20 mM MgCl2, 6 μM ATP (100 μCi/μmmole ^33P-ATP)] was added each well, followed by incubating the wells for 30 min. at 25° C. Final concentrations in each well were 50 mM HEPES 7.5, 10 mM MgCl2, 25 mM NaCl, 5 mM DTT, 0.1 mg/mL BSA, 30 μM PI(4,5)P2, 3 μM ATP, and the PI3K isoform of interest (see Table 3). Final compound concentrations in each well ranged from 10 μM to 1 nM. [table] After incubation, the reactions in each well were quenched by addition of 50 μL of stop solution [30% TCA/Water, 10 mM ATP]. Each quenched reaction mixture was then transferred to a 96 well glass fiber filter plate [Corning, Costar Item No. 3511]. The plate was vacuum-filtered and washed three times with 150 μL of 5% TCA/water in a modified Bio-Tek Instruments ELX-405 Auto Plate Washer. 50 μL of scintillation fluid was added to each well and the plate read on a Perkin-Elmer TopCount™ NXT liquid scintillation counter to obtain ^33P-counts representing inhibition values. The value for the background well was subtracted from the value obtained for each test well and the data were fit to the competitive tight binding Ki equation described by Morrison and Stone, Comments Mol. Cell. Biophys. 2: 347-368, 1985.

PI3K-gamma, sequence (P48736 whole entry, species assumed): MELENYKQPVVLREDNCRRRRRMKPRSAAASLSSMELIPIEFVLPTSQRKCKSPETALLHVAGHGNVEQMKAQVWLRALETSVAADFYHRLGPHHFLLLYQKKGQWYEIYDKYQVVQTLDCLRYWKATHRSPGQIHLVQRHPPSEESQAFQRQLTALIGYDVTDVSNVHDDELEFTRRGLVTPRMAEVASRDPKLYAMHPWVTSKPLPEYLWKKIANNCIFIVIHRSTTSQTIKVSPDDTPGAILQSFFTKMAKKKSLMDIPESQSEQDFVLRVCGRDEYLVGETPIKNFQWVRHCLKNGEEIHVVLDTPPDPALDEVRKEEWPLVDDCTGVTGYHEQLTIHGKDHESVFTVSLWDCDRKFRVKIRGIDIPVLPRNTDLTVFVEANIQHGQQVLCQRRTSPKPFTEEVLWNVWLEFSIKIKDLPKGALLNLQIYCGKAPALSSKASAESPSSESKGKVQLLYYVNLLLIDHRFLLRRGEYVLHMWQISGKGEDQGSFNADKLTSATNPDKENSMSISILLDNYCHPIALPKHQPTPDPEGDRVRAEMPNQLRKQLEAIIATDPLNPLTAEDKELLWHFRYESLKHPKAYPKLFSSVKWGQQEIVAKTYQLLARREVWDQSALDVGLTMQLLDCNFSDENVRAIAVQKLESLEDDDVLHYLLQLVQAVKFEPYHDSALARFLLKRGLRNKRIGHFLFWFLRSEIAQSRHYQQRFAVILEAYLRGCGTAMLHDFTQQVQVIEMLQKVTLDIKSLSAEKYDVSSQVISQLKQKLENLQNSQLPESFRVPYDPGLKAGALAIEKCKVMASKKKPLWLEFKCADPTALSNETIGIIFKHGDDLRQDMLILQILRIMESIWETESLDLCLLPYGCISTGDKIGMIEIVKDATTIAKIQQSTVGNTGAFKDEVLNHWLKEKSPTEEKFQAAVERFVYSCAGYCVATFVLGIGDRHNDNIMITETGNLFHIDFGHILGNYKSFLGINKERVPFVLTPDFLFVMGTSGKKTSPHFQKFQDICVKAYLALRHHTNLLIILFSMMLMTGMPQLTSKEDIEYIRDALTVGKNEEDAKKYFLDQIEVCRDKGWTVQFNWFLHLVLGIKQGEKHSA

SMILES | Ki
C[C@@H](CNC(=O)Nc1cc(C#Cc2ccc3nccnc3c2)n(C)n1)OCC1CC1 [Compound 12] | < 100 nM
COc1cc(C#Cc2cc(NC(=O)NC[C@H](C)OCC3CC3)nn2C)cnc1OC [Compound 14] | < 100 nM
COc1cc(C#Cc2cc(NC(=O)NC[C@@H](C)OCC3CC3)nn2C)cnc1OC [Compound 11] | < 100 nM

Second part, the molecule after the results:

Ki | SMILES
< 100 nM | COc1cncc(C#Cc2cc(NC(=O)NCCOCC3CC3)nn2C)c1 [Compound 6]
< 100 nM | Cn1nc(NC(=O)NCCc2cn(CC(F)F)cn2)cc1C#Cc1cccnc1 [Compound 3]
< 100 nM | Cn1nc(NC(=O)NCCOCC2CC2)cc1C#Cc1ccc2nccnc2c1 [Compound 9]
< 100 nM | Cn1nc(NC(=O)NCCOCC2CC2)cc1C#Cc1cccnc1Cl [Compound 8]
< 100 nM | Cn1nc(NC(=O)NCCOCC2CC2)cc1C#Cc1ccc(N)nc1 [Compound 7]
